Drawing on ChEMBL document CHEMBL3046233, “Synthesis and anticonvulsant activity of 4-(2-phenoxyphenyl)semicarbazones” (Med Chem Res, 2009), this text covers Time and Activity for 21 molecules.

Data set [1] has as its system Rattus norvegicus. Kind of data set: Anticonvulsant activity in Rattus norvegicus Wistar (rat) pentylenetetrazole-induced kindling model assessed as seizure time at 30 mg/kg, ip administered 30 min before pentylenetetrazole challenge. It is filed as functional. Particulars: route intraperitoneal.
The test system of data set [2] is Rattus norvegicus. Kind of data set: Anticonvulsant activity in Rattus norvegicus Wistar (rat) pentylenetetrazole-induced kindling model assessed as seizure latency time at 30 mg/kg, ip administered 30 min before pentylenetetrazole challenge. It is filed as functional. Particulars: route intraperitoneal.
The subject of data set [3] is Rattus norvegicus. Kind of data set: Neurotoxicity in Rattus norvegicus Wistar (rat) at 300 mg/kg, ip by rotarod test. Details: dose 300 mg/kg, route intraperitoneal. The conditions noted are these: in vivo. It is filed as toxicity, organism-based.
In data set [4] the test system is Rattus norvegicus. As to the kind of experiment: Anticonvulsant activity in Rattus norvegicus Wistar (rat) pentylenetetrazole-induced kindling model assessed as seizure time at 200 mg/kg, ip administered 30 min before pentylenetetrazole challenge. It is filed as functional. The conditions noted are these: route intraperitoneal.
The subject of data set [5] is Rattus norvegicus. As to the kind of experiment: Anticonvulsant activity in Rattus norvegicus Wistar (rat) pentylenetetrazole-induced kindling model assessed as seizure time at 100 mg/kg, ip administered 30 min before pentylenetetrazole challenge. It is filed as functional. Particulars: route intraperitoneal.
Data set [6] relates to Rattus norvegicus. As to the kind of experiment: Anticonvulsant activity in Rattus norvegicus Wistar (rat) pentylenetetrazole-induced kindling model assessed as seizure latency time at 200 mg/kg, ip administered 30 min before pentylenetetrazole challenge. Particulars: route intraperitoneal. It is filed as functional.
Data set [7] deals with Rattus norvegicus. As to the kind of experiment: Anticonvulsant activity in Rattus norvegicus Wistar (rat) pentylenetetrazole-induced kindling model assessed as seizure latency time at 100 mg/kg, ip administered 30 min before pentylenetetrazole challenge. It is filed as functional. Particulars: route intraperitoneal.

For the molecule `C/C(=N\NC(=O)Nc1ccccc1Oc1ccccc1)c1ccccc1[N+](=O)[O-]`, the Time was 40.6 s in data set [1] and 639.2 s in data set [2].
For `C/C(=N\NC(=O)Nc1ccccc1Oc1ccccc1)c1cccc([N+](=O)[O-])c1` the same measures were 32.2 s and 832.2 s.
For `C/C(=N\NC(=O)Nc1ccccc1Oc1ccccc1)c1ccc([N+](=O)[O-])cc1` the same measures were 64.25 s and 404.25 s.
Turning to `C/C(=N\NC(=O)Nc1ccccc1Oc1ccccc1)c1ccc(C)cc1`, the Time is recorded as 71.42 s in data set [1] and 405.42 s in data set [2].
For `C/C(=N\NC(=O)Nc1ccccc1Oc1ccccc1)c1ccccc1O` the same measures were 33.2 s and 532.4 s.
For `CSc1ccc(/C(C)=N/NC(=O)Nc2ccccc2Oc2ccccc2)cc1` the same measures were 75 s and 189.4 s.
For `COc1ccc(OC)c(/C(C)=N/NC(=O)Nc2ccccc2Oc2ccccc2)c1` the same measures were 69.16 s and 110 s.
Regarding `O=C(N/N=C/c1ccccc1)Nc1ccccc1Oc1ccccc1`, the Time in data set [1] turned out to be 48.5 s; in data set [2], 508.5 s.
As for `O=C(N/N=C/c1cccc(Br)c1)Nc1ccccc1Oc1ccccc1`, the Time came to 81 s in data set [1] and 229.33 s in data set [2].
For `O=C(N/N=C/c1ccccc1[N+](=O)[O-])Nc1ccccc1Oc1ccccc1` the same measures were 36.5 s and 858.66 s.
For `O=C(N/N=C/c1cccc([N+](=O)[O-])c1)Nc1ccccc1Oc1ccccc1` the same measures were 40.2 s and 636.2 s.
For `O=C(N/N=C/c1ccc([N+](=O)[O-])cc1)Nc1ccccc1Oc1ccccc1` the same measures were 79.75 s and 293.75 s.
`Cc1ccc(/C=N/NC(=O)Nc2ccccc2Oc2ccccc2)cc1`: the Time is 59.28 s in data set [1] and 418.71 s in data set [2].
In the case of `O=C(N/N=C/c1ccccn1)Nc1ccccc1Oc1ccccc1`, the figures for the Time in data set [1] and in data set [2] were 23 s and 1161.6 s, respectively. Also, the Activity entry in data set [3] was “Non-toxic”.
As to `O=C(N/N=C/c1cccnc1)Nc1ccccc1Oc1ccccc1`, the Time is recorded as 40.4 s in data set [1] and 903 s in data set [2].
With `O=C(N/N=C/c1ccncc1)Nc1ccccc1Oc1ccccc1`, the values for the Time in data set [1] and in data set [2] were 31.16 s and 969.83 s, respectively. In addition, in data set [3], the Activity result is on record as “Non-toxic”.
On to `CSc1ccc(/C=N/NC(=O)Nc2ccccc2Oc2ccccc2)cc1`, for which the Time amounted to 66.5 s in data set [1] and 244.75 s in data set [2].
The corresponding values for `COc1ccc(OC)c(/C=N/NC(=O)Nc2ccccc2Oc2ccccc2)c1` are 54.83 s and 150.16 s.
The corresponding values for `C/C(=N\NC(=O)Nc1ccccc1Oc1ccccc1)c1ccccc1` are 48.75 s and 293.75 s.
For `C/C(=N\NC(=O)Nc1ccccc1Oc1ccccc1)c1cccc(Br)c1` the same measures were 85.33 s and 209.66 s.
On to `CCCC(CCC)C(=O)[O-].[Na+]` [VALPROATE SODIUM], for which the Time in data set [4] is on record as 26.5 s; in data set [5], 40 s; in data set [6] it was 900.62 s; in data set [7], 817.42 s.
